# Assay results taken from patent US20150216794A1, “METHODS OF TREATING PAIN ASSOCIATED WITH OSTEOARTHRITIS OF A JOINT WITH A TOPICAL FORMULATION OF A SPIRO-OXINDOLE COMPOUND” (IVAX International GmbH, priority 2014, published 2015).
# “And” between values parts separate entries of the source, which are not always exact repeats. Equal entries are not always repeated.
# Columns and labels:
# NaV1.7 = NaV1.7 (Homo sapiens, UniProt Q15858); assay: block of NaV1.7 (inactivated vs resting state); type: biochemical
# From the text: NaV1.7 is expressed primarily in the peripheral nervous system in both sensory and sympathetic neurons (Raymond, C. K., et al., op. cit.). Loss-of-function mutations in SCN9A (the gene encoding the alpha subunit of the NaV1.7 sodium channel) cause a human condition known as congenital indifference to pain characterized by an inability to perceive pain (Cox, J. J., et al., Nature (2006), 444:894-98; Goldberg, Y. P., et al., Clin Genet (2007), 71:311-9). Gain-of-function mutations in SCN9A are associated with inherited erythromelalgia (IEM) (Drenth, J. P., et al., J Invest Dermatology (2005), 124:1333-8), which is characterized by spontaneous or easily evoked severe pain. Furthermore, up to 29% of biopsy-proven cases of idiopathic small-fiber neuropathy manifesting mainly as distal severe pain (Faber, C. G., et al., Ann Neurol (2012), 71:26-39) are associated with gain-of-function NaV1.7 channel mutations.
# [1] = minipig: metabolite profile of urine and bile (UPLC); type: in vivo, Göttingen minipig; settings: none consistent with spiro-oxindole compound
# From the text: Attempts to separate radioactive components using HPLC with radioactivity detection present in plasma, liver and excreta were unsuccessful due to low radioactivity levels in samples submitted for further analysis.
# [2] = domestic pig joint penetration study: concentration in liver tissue; type: in vivo
# Protocol: (§1) This study was conducted to evaluate the joint penetration, systemic plasma exposure and tissue distribution of the spiro-oxindole compound in domestic pigs following topical administration of a pharmaceutical composition utilized in the methods of the invention. Fifteen female pigs were used in this study with three pigs in each group. Beginning on Day 1, a pharmaceutical composition of the invention was topically applied to the left radiocarpal joint (carpus) and tibiotarsal joint (hock) twice daily (bid) for 17 days (34 applications) for Groups 1-4 and once daily (qd) for 17 days (17 applications) for Group 5. Pre-dose blood samples (prior to morning dosing) was collected on Days 2, 7, 10, 14 and 17. A full pharmacokinetic sampling was performed on Day 17 (post am dosing) at the following time points: 1, 2, 4, 8 and 12 hr. On the day of necropsy, Day 18, blood was collected prior to euthanasia, each pig was humanely euthanized and dorsal skin and muscle, liver, kidney, heart, lung, brain, intestine, fat, ovaries, urinary bladder, sciatic nerve, and skin, muscle, synovial membrane, and synovial fluid from all 4 joints (2 treated, left carpus and hock, and 2 untreated, right carpus and hock) was collected.
# (§2) The dose volume (μL/cm^2) for the test pharmaceutical compositions was 3.0 μL/cm^2 for Groups 1, 2, 3 and 5 and 1.0 μL/cm^2 for Group 4.
# (§3) The following tissue samples were collected after euthanasia: • Dorsal skin and muscle (from the mid-back) • Liver—Left Medial Lobe • Kidney—Right • Heart • Lung—Right diaphragmatic lobe • Brain—Right cerebral hemisphere • Intestine—mid-jejunum • Duodenum (10-15 cm length) from all 6 animals in Groups 1 and 2 • Fat • Ovary—Right • Urinary bladder • Sciatic nerve from both legs • Skin, muscle underlying site of administration and synovial membrane of all 4 joints (treated left carpus and hock and untreated right carpus and hock)
# [3] = domestic pig joint penetration study: concentration in plasma; type: in vivo; settings: for concentration in plasma, individual animals: 3.0 μL/cm^2 bid
# Protocol: as §1, §2
# Approximately 2 mL of whole blood was collected prior to the morning dose administration on Days 2, 7, 10, 14 and 17. A full pharmacokinetic profile sampling was performed on Day 17 after the morning dose administration at the following time points: 1, 2, 4, 8 and 12 hr. On the day of necropsy, Day 18, blood was collected prior to euthanasia.
# [4] = domestic pig joint penetration: concentration in synovial membrane; type: in vivo
# Protocol: as §1
# Doses were calculated by measuring the joint circumference and joint width (to include ˜2 cm above and below the joint) to calculate the total surface area for each individual dose. Group 1 received a 2% pharmaceutical composition of the invention and the dose volume for Group 1 was calculated using the total surface area and the designated dose volume of 3 μL/cm^2. The total dose volume was then converted from μL to mL to estimate the dose weight in grams, based on the composition density of 1 g/cm^3. Following is an example (not actual measurements) of calculating the dose:
# For Groups 2-5, the dose volume was calculated using the total surface area and the designated dose volume of 3 μL/cm^2 (Groups 2, 3 and 5) or 1 μL/cm^2 (Group 4). The total dose volume was then converted from μL to mL to estimate the dose length in centimeters of a ribbon of the pharmaceutical composition when squeezed from a glaminate tube onto a metal metric ruler, based on the composition length-weight relationship of 1 cm of pharmaceutical composition being equal to 0.5 g of the composition (diameter of the tube opening was 0.87 cm).
# The test compositions were topically applied an equal distance above and below the center of the joint, i.e., inter-carpal joint space (carpus) and inter-tarsal joint space (hock) of each animal to allow for complete coverage of the joint, including approximately 2 cm above and below the edges of the joint. The test composition was applied to the entire circumference of the designated area. All animals were dosed using the same distance above and below each joint center for consistency.
# as §2, §3
# [5] = domestic pig, topical administration to a joint
# Sequence of NaV1.7 (Q15858 whole entry): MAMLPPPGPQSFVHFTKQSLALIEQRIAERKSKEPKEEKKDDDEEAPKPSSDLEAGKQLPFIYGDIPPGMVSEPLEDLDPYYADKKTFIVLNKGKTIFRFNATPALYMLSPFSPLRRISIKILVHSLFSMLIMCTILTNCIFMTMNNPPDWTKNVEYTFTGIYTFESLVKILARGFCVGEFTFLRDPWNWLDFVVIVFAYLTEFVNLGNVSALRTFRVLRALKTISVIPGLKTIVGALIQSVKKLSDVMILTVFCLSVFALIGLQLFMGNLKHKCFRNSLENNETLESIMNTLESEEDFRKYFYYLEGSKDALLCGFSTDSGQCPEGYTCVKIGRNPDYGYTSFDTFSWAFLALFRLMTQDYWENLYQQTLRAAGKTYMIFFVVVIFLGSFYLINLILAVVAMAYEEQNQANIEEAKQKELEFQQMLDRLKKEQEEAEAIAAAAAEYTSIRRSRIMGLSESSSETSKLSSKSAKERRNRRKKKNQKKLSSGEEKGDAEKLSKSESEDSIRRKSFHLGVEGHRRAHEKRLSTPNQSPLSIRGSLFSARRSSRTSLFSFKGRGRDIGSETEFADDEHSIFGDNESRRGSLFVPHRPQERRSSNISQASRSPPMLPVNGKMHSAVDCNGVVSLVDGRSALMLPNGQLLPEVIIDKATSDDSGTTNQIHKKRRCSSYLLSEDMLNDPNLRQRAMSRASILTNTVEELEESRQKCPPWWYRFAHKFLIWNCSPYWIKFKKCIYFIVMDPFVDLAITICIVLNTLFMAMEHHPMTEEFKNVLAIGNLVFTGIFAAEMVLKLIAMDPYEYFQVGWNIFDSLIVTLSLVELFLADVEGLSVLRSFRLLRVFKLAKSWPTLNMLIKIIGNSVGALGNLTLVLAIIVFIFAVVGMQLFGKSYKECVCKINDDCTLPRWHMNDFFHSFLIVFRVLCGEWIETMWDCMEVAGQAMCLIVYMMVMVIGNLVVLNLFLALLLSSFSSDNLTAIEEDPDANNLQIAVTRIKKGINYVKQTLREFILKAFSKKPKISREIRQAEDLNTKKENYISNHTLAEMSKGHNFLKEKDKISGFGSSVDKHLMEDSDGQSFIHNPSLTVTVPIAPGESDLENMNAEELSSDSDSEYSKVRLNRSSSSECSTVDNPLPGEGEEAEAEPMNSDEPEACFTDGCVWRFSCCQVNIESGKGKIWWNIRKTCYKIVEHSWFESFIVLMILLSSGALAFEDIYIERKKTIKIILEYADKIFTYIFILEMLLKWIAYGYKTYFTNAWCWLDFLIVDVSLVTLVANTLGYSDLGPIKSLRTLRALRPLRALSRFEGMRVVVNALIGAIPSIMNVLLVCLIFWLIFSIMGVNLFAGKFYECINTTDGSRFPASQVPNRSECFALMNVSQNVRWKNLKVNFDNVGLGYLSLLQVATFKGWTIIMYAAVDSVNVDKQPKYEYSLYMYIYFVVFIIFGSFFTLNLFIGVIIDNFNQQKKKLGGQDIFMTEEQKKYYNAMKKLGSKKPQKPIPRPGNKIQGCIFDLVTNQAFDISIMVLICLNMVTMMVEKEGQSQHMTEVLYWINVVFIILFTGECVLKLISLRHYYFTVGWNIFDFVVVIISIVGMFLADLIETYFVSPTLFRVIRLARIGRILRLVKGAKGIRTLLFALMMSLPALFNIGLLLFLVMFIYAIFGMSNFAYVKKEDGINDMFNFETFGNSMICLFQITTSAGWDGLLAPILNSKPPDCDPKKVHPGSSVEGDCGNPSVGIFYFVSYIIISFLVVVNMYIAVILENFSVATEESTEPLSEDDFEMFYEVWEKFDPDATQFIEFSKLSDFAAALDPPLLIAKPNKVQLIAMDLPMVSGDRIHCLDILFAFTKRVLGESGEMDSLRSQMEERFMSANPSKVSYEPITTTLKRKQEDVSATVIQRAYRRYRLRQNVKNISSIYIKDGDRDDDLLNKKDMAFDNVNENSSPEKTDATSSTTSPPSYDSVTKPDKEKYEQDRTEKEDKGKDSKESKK
smiles,measurement,setting,value
"O=C1N(Cc2ccc(C(F)(F)F)o2)c2ccccc2[C@]12COc1cc3c(cc12)OCO3 [spiro-oxindole compound, (S)-1′-{[5-(trifluoromethyl)furan-2-yl]methyl}spiro[furo[2,3-f][1,3]benzodioxole-7,3′-indol]-2′(1′H)one]","potency of the block, inactivated state compared with resting state",NaV1.7; NaV1.7,approximately 220 fold
same,IC50,NaV1.7; inactivated state,0.05 µM
same,IC50,NaV1.7; resting state,11.3 µM
same,radioactive peaks observed by UPLC,[1]; bile (gall bladder contents),another two peaks
same,radioactive peaks observed by UPLC,[1]; urine,two distinct peaks
same,"concentration in liver tissue, individual animals","[2]; G1 (#1-#3): 2% composition, 3.0 μL/cm^2 bid 17 days",17.0 ng/g and 2.2 ng/g and 14.0 ng/g
same,"concentration in liver tissue, individual animals","[2]; G2 (#4-#6): 4% composition, 3.0 μL/cm^2 bid 17 days",49.1 ng/g and 29.3 ng/g
same,"concentration in liver tissue, individual animals","[2]; G3 (#7-#9): 8% composition, 3.0 μL/cm^2 bid 17 days",47.2 ng/g and 48.2 ng/g and 21.6 ng/g
same,"concentration in liver tissue, individual animals","[2]; G4 (#10-#12): 8% composition, 1.0 μL/cm^2 bid 17 days",0.0 ng/g and 39.1 ng/g and 13.0 ng/g
same,"concentration in liver tissue, individual animals","[2]; G5 (#13-#15): 8% composition, 3.0 μL/cm^2 qd 17 days",3.6 ng/g and 25.1 ng/g and 0.0 ng/g
same,"concentration in plasma, individual animals","[3]; G1 (#1-#3): 2% composition, Day 2 Before dosing",0.34 ng/mL
same,"concentration in plasma, individual animals","[3]; G1 (#1-#3): 2% composition, Day 7 Before dosing",0.97 ng/mL
same,"concentration in plasma, individual animals","[3]; G1 (#1-#3): 2% composition, Day 10 Before dosing",1.54 ng/mL
same,"concentration in plasma, individual animals","[3]; G1 (#1-#3): 2% composition, Day 14 Before dosing",1.10 ng/mL
same,"concentration in plasma, individual animals","[3]; G1 (#1-#3): 2% composition, Day 17 1 hour after dosing",1.21 ng/mL
same,"concentration in plasma, individual animals","[3]; G1 (#1-#3): 2% composition, Day 17 2 hour after dosing",1.07 ng/mL
same,"concentration in plasma, individual animals","[3]; G1 (#1-#3): 2% composition, Day 17 4 hour after dosing",1.04 ng/mL
same,"concentration in plasma, individual animals","[3]; G1 (#1-#3): 2% composition, Day 17 8 hour after dosing",1.30 ng/mL
same,"concentration in plasma, individual animals","[3]; G1 (#1-#3): 2% composition, Day 17 12 hour after dosing",11.38 ng/mL
same,"concentration in plasma, individual animals","[3]; G1 (#1-#3): 2% composition, Day 17 Before dosing",2.70 ng/mL
same,"concentration in plasma, individual animals","[3]; G1 (#1-#3): 2% composition, Day 18",1.60 ng/mL
same,"concentration in plasma, individual animals","[3]; G2 (#4-#6): 4% composition, Day 2 Before dosing",0.84 ng/mL and 0.86 ng/mL
same,"concentration in plasma, individual animals","[3]; G2 (#4-#6): 4% composition, Day 7 Before dosing",1.73 ng/mL
same,"concentration in plasma, individual animals","[3]; G2 (#4-#6): 4% composition, Day 10 Before dosing",1.79 ng/mL
same,"concentration in plasma, individual animals","[3]; G2 (#4-#6): 4% composition, Day 14 Before dosing",2.47 ng/mL
same,"concentration in plasma, individual animals","[3]; G2 (#4-#6): 4% composition, Day 17 1 hour after dosing",2.47 ng/mL
same,"concentration in plasma, individual animals","[3]; G2 (#4-#6): 4% composition, Day 17 2 hour after dosing",3.47 ng/mL
same,"concentration in plasma, individual animals","[3]; G2 (#4-#6): 4% composition, Day 17 4 hour after dosing",2.72 ng/mL
same,"concentration in plasma, individual animals","[3]; G2 (#4-#6): 4% composition, Day 17 8 hour after dosing",1.94 ng/mL
same,"concentration in plasma, individual animals","[3]; G2 (#4-#6): 4% composition, Day 17 12 hour after dosing",12.17 ng/mL and 15.72 ng/mL
same,"concentration in plasma, individual animals","[3]; G2 (#4-#6): 4% composition, Day 17 Before dosing",3.25 ng/mL
same,"concentration in plasma, individual animals","[3]; G2 (#4-#6): 4% composition, Day 18",5.41 ng/mL and 2.83 ng/mL
same,plasma concentration / systemic exposure (in words),[3]; [5],nanomolar
same,"concentration in synovial membrane tissue, individual animals","[4]; G1 (#1-#3): 2% composition, 3.0 μL/cm^2 bid 17 days, Treated left carpus",126.88 ng/g and 56.86 ng/g and 105.89 ng/g
same,"concentration in synovial membrane tissue, individual animals","[4]; G1 (#1-#3): 2% composition, 3.0 μL/cm^2 bid 17 days, Treated left hock",152.13 ng/g and 38.86 ng/g and 54.04 ng/g
same,"concentration in synovial membrane tissue, individual animals","[4]; G1 (#1-#3): 2% composition, 3.0 μL/cm^2 bid 17 days, Untreated right carpus",70.83 ng/g and 84.97 ng/g and 44.47 ng/g
same,"concentration in synovial membrane tissue, individual animals","[4]; G1 (#1-#3): 2% composition, 3.0 μL/cm^2 bid 17 days, Untreated right hock",97.22 ng/g and 33.16 ng/g and 41.19 ng/g
same,"concentration in synovial membrane tissue, individual animals","[4]; G2 (#4-#6): 4% composition, 3.0 μL/cm^2 bid 17 days, Treated left carpus",72.14 ng/g and 269.82 ng/g and 183.72 ng/g
same,"concentration in synovial membrane tissue, individual animals","[4]; G2 (#4-#6): 4% composition, 3.0 μL/cm^2 bid 17 days, Treated left hock",132.05 ng/g and 95.93 ng/g and 131.87 ng/g
same,"concentration in synovial membrane tissue, individual animals","[4]; G2 (#4-#6): 4% composition, 3.0 μL/cm^2 bid 17 days, Untreated right carpus",114.15 ng/g and 100.42 ng/g and 129.30 ng/g
same,"concentration in synovial membrane tissue, individual animals","[4]; G2 (#4-#6): 4% composition, 3.0 μL/cm^2 bid 17 days, Untreated right hock",92.75 ng/g and 69.80 ng/g and 98.28 ng/g
same,"concentration in synovial membrane tissue, individual animals","[4]; G3 (#7-#9): 8% composition, 3.0 μL/cm^2 bid 17 days, Treated left carpus",708.62 ng/g and 737.86 ng/g and 137.46 ng/g
same,"concentration in synovial membrane tissue, individual animals","[4]; G3 (#7-#9): 8% composition, 3.0 μL/cm^2 bid 17 days, Treated left hock",252.46 ng/g and 576.83 ng/g and 1917.93 ng/g
same,"concentration in synovial membrane tissue, individual animals","[4]; G3 (#7-#9): 8% composition, 3.0 μL/cm^2 bid 17 days, Untreated right carpus",54.19 ng/g and 185.83 ng/g and 130.63 ng/g
same,"concentration in synovial membrane tissue, individual animals","[4]; G3 (#7-#9): 8% composition, 3.0 μL/cm^2 bid 17 days, Untreated right hock",82.74 ng/g and 737.82 ng/g and 167.55 ng/g
same,"concentration in synovial membrane tissue, individual animals","[4]; G4 (#10-#12): 8% composition, 1.0 μL/cm^2 bid 17 days, Treated left carpus",49.99 ng/g and 59.22 ng/g and 159.68 ng/g
same,"concentration in synovial membrane tissue, individual animals","[4]; G4 (#10-#12): 8% composition, 1.0 μL/cm^2 bid 17 days, Treated left hock",291.56 ng/g and 38.32 ng/g and 3171.10 ng/g
same,"concentration in synovial membrane tissue, individual animals","[4]; G4 (#10-#12): 8% composition, 1.0 μL/cm^2 bid 17 days, Untreated right carpus",34.85 ng/g and 1772.86 ng/g and 46.92 ng/g
same,"concentration in synovial membrane tissue, individual animals","[4]; G4 (#10-#12): 8% composition, 1.0 μL/cm^2 bid 17 days, Untreated right hock",26.20 ng/g and 0.00 ng/g and 45.29 ng/g
same,"concentration in synovial membrane tissue, individual animals","[4]; G5 (#13-#15): 8% composition, 3.0 μL/cm^2 qd 17 days, Treated left carpus",702.22 ng/g and 150.00 ng/g and 35.31 ng/g
same,"concentration in synovial membrane tissue, individual animals","[4]; G5 (#13-#15): 8% composition, 3.0 μL/cm^2 qd 17 days, Treated left hock",31.44 ng/g and 100.00 ng/g and 55.90 ng/g
same,"concentration in synovial membrane tissue, individual animals","[4]; G5 (#13-#15): 8% composition, 3.0 μL/cm^2 qd 17 days, Untreated right carpus",11.61 ng/g and 25.25 ng/g and 79.58 ng/g
same,"concentration in synovial membrane tissue, individual animals","[4]; G5 (#13-#15): 8% composition, 3.0 μL/cm^2 qd 17 days, Untreated right hock",18.69 ng/g and 37.98 ng/g and 21.70 ng/g
same,concentration in synovial membrane tissue of treated joint (in words),[4]; [5],micromolar concentrations
